Patent US20130231377A1, “PACTAMYCIN ANALOGS AND METHODS OF USE” (State of Oregon acting by and through the state Board of …, priority 2010, published 2013)
pEC50, pIC50: −log10 of the molar value. Like-named read-outs stand apart in the source and are kept apart here.

Experiments:
[1] = tested on: chloroquine-resistant and MDR clone Dd2 of P. falciparum; test: Antimalarial activity assay, SYBR Green I fluorescence-based method; format: cell-based, Plasmodium falciparum; conditions: for pIC50: read-out: Antimalarial IC50 (Dd2); for IC90: read-out: Antimalarial IC90 (Dd2)
Method: (§1) An antimalarial activity assay was carried out at the Oregon Translational Research and Drug Development Institute (OTRADI). Two strains of P. falciparum were used. The chloroquine-sensitive clone D6, and chloroquine-resistant and MDR clone Dd2 was obtained from the Malaria Research and Reference Reagent Resource Center (MR4) (Manassas, Va.). The parasites were cultured according to the method of Trager and Jensen (Trager and Jensen, Science, 1976, 193:673-675), with minor modifications. The cultures were maintained in human erythrocytes (Lampire Biological Laboratories, Pipersville, Pa.), suspended at 2% hematocrit in RPMI 1640 (Sigma) containing 0.5% Albumax (Invitrogen), […] hypoxanthine (Lancaster), and 50 μg/L gentamicin (Invitrogen), and incubated at 37° C. under a gas mixture of 5% O2, 5% CO2, and 90% N2. In vitro antimalarial activity was determined by a SYBR Green I fluorescence-based method described previously by Smilkstein et al. (Smilkstein et al., Antimicrob. Agents Chemother., 2004, 48:1803-1806). Frozen stock solutions of each test drug (1 mM in DMSO) were thawed, warmed to 37° C., and mixed thoroughly prior to use. Drug solutions were serially diluted with culture medium, and distributed to asynchronous parasite cultures on 96-well plates in quadruplicate in a total volume of 100 μL to achieve 0.2% parasitemia with a 2% hematocrit in a total volume of 100 μL. Automated pipeting and dilution was carried using programmable Precision XS (Bio-Tek, Winooski, Vt.) and Sciclone ALH3000 (Caliper, Hopkinton, Mass.) robotic stations. The plates then were incubated for 72 hours at temperature and gas conditions described above. After incubation, 100 μL of lysis buffer with SYBR Green I was added to each well. The plates were incubated at room temperature for 1 h and then placed in a 96-well fluorescence plate reader (Synergy4, BioTek, Winooski, Vt.) with excitation and emission wavelength at 485 nm and 528 nm, respectively, for measurement of fluorescence. The 50% inhibitory concentration (IC50) was determined by non-linear regression analysis of logistic dose-response curves (GraphPad Prism software).

[2] = tested on: chloroquine-sensitive clone D6 of P. falciparum; test: as above; format: cell-based, Plasmodium falciparum; conditions: for pIC50: read-out: Antimalarial IC50 (D6); for IC90: read-out: Antimalarial IC90 (D6)
Method: as §1

[3] = tested on: Gram-positive and Gram-negative bacteria; test: Antibacterial agar diffusion and micro-dilution assays, all tested strains (Example 1); format: cell-based, S. aureus, B. subtilis, P. aeruginosa, E. coli; conditions: for antibacterial activity in agar diffusion and micro-dilution assays (in words): at the concentrations used; for pIC50: consistently higher than pactamycin, mostly >1 mM, read-out: IC50 against all tested bacterial strains
Method: The antibacterial activity of pactamycin and its analogs was determined by agar diffusion and micro-dilution assays. E. coli, P. aeruginosa, B. subtilis or M. smegmatis, and S. aureus were streaked on nutrient agar (Difco or Beckton-Dickinson) and grown overnight at 37° C. Colonies were transferred to nutrient broth and incubated at 37° C. for 24 hours. Turbidity of the inoculum was measured to a proper density at 600 nm (BioRad, SmartSpec 3000). For plate preparation, inoculum (500 μL) was mixed thoroughly with warm nutrient agar (50 mL) and poured to 25 mL square plates. The agar plates were allowed to solidify and dry for 30 min before assay. Sterile blank paper disks (Becton-Dickinson) were impregnated with pactamycin and its analogs (20 μL) at various concentrations and dried at room temperature. The disks were placed onto inoculated agar plates and incubated at 37° C. for 24 hours. In order to produce a contrast background of the inhibition zone, 0.25% MTT developing dye (1 mL) was added over the plates.
Micro-dilution assays were performed in 96-well plates. The compounds were serially diluted and added to the bacterial suspension at final concentrations of 1 mM-10 nM, or 0.5 mM-10 nM. After incubation at 37° C. for 24 hours, 0.25% MTT developing dye (50 μL) was added. Each assay was done in triplicate.

[4] = Cytotoxicity assay (WST-8) against HCT116 cells; format: cell-based; conditions: human, HCT116 colorectal carcinoma cells, estimated
Method: HCT116 (colorectal carcinoma) cells were seeded onto a 96-well plate at 10,000 cells per well. Cells were treated with either 5, 50, 500 or 5000 nM TM-025, TM-026, N-acetyl-glucosaminyl-3-aminoacetophenone or 5, 25, 50, 100 nM pactamycin in triplicate for 48 hours. For the narrow range concentration assays, cells were treated with either 0.5, 1, 2 or 4 μM TM-025; 1, 2, 3 or 5 μM TM-026; 0.5, 2, 5 or 7 μM N-acetylglucosaminyl-3-aminoacetophenone or 12.5, 25, 50, 100 nM pactamycin in triplicate for 24 or 48 hours. WST-8 [2-(2-methoxy-4-nitrophenyl)-3-[…], monosodium salt] (Dojindo, Rockville, Md.) was added to each well to give an orange-colored formazan product, which is soluble in tissue culture medium. Absorbance was measured at 450 nm. Percent of viable cells was calculated relative to the “No Treatment” and “Solvent Only” wells.

[5] = tested on: E. coli; test: Antibacterial agar diffusion assay (Example 2); format: cell-based, Escherichia coli
Method: (§2) Antibacterial activity of pactamycin and its analogues was determined by an agar diffusion assay. E. coli, Pseudomonas aeruginosa, Mycobacterium smegmatis, and Staphylococcus aureus were streaked on nutrient agar (Difco) and grown overnight at 37° C. Colonies were transferred to nutrient broth and incubated at 37° C. for 24 hours. Turbidity of the inoculum was measured to a proper density at 600 nm (BioRad, SmartSpec 3000). For plate preparation, inoculum (500 μL) was mixed thoroughly with warm nutrient agar (50 mL) and poured to 25 mL square plates. The agar plates were allowed to solidify and dry for 30 minutes before assay. Sterile blank paper disks (Becton-Dickinson) were impregnated with pactamycin and its analogues (20 μL) at various concentrations and dried at room temperature. The disks were placed onto inoculated agar plates and incubated at 37° C. for 24 hours. In order to produce a contrast background of the inhibition zone, 0.25% MTT developing dye (1 mL) was added over the plates.

[6] = tested on: Mycobacterium smegmatis; test: Antibacterial agar diffusion assay (Example 2); format: cell-based
Method: as §2

[7] = tested on: Staphylococcus aureus; test: Antibacterial agar diffusion assay (Example 2); format: cell-based
Method: as §2

[8] = tested on: Pseudomonas aeruginosa; test: Antibacterial agar diffusion assay (Example 2); format: cell-based
Method: as §2

[9] = tested on: human colon cancer HT-29 cells; test: MTT cell viability assay in HT-29 cells; format: cell-based; conditions: HT-29 cells, 24-hour
Method: The MTT assay was carried out as described by Mosmann (J. Immunol. Methods, 1983, 65:55). Briefly, human colon cancer HT-29 cells (ATCC) were seeded in 96-well plates at a density of 1.0×10^4 cells per well. The growth medium consisted of phenol red-free RPMI 1640 (Invitrogen, Carlsbad, Calif.) containing 10% fetal bovine serum (Invitrogen, Carlsbad, Calif.), glutamine (2 mM), penicillin (100 units/mL) and streptomycin (100 μg/mL). After a 24-hour incubation at 37° C. in a humidified atmosphere of 5% CO2, the medium was removed and replaced with fresh RPMI 1640 medium (with or without 10% FBS and no penicillin or streptomycin). Increasing concentrations of pactamycin, pactamycate, de-6MSA pactamycin, or de-6MSA-pactamycate dissolved in DMSO were added to cells at a volume of 0.2 mL/well. DMSO was added to control media not to exceed a final concentration of 1%. Following a 24-hour incubation, the medium was aspirated from each well and replaced with fresh RPMI medium with 10% FBS and MTT (0.5 mg/mL). […] The plate was shaken for 10 minutes before reading the absorbance at 570 nm using a microplate reader (SpectraMax 250, Molecular Devices, Sunnyvale, Calif., USA). The viability of treated cells was expressed as the percentage of control cells. […]

[10] = tested on: HT-29 human colon carcinoma cells; test: SRB growth inhibition assay in HT-29 cells; format: cell-based
Method: Growth inhibition of HT-29 cells induced by the test compounds was also evaluated by the SRB assay, which is based on measuring total biomass by staining the cellular proteins with sulforhodamine B (Skehan et al., J. Natl. Cancer Inst., 1990, 82:1107). After treating the HT-29 cells with the compounds for 24 hours, the adherent cells grown in 96-well plates were fixed with 10% trichloroacetic acid and incubated for 1 hour at 4° C. The plates were washed five times with tap water, dried, and stained with SRB solution (0.4% wt/vol in 1% acetic acid) for 30 minutes at room temperature. The plates were again washed and dried before adding 10 mM Tris base to solubilize the bound stain. Optical densities (OD) were read at 564 nm in SpectraMax 250 and cell growth of treated cells was expressed as the percentage of control cells, ODtest/ODcontrol×100%.

[11] = Plasmodium falciparum, DD2, 72 h, P. falciparum Dd2, 72 hours
[12] = Plasmodium falciparum, D6, 72 h, P. falciparum D6, 72 hours
[13] = Plasmodium falciparum, DD2, 72 h
[14] = Plasmodium falciparum, D6, 72 h

CC(=O)N[C@H]1C(Nc2cccc(C(C)=O)c2)O[C@H](CO)[C@@H](O)[C@@H]1O (stereo partly shown) [N-acetylglucosaminyl-3-aminoacetophenone, reference compound]
antimalarial activity (in words) ([1]; P. falciparum Dd2): lack of activity | antimalarial activity (in words) ([2]; P. falciparum D6): lack of activity

CC(=O)c1cccc(N[C@H]2[C@H](N)[C@](C)(NC(=O)N(C)C)[C@@](C)(O)[C@@]2(O)CO)c1 [TM-025, de-6MSA-7-demethyl-7-deoxypactamycin]
pIC50 ([1]; P. falciparum Dd2, 72 hours): ~7.60 | IC90 ([1]; P. falciparum Dd2, 72 hours): ~0.076 µM | pIC50 [1, 11]: 7.52 to 7.60 | IC90 [1, 11]: 0.062 to 0.077 µM | pIC50 ([2]; P. falciparum D6, 72 hours): ~7.60 | IC90 ([2]; P. falciparum D6, 72 hours): ~0.062 µM | pIC50 [2, 12]: 7.52 to 7.60 | IC90 [2, 12]: 0.062 to 0.077 µM | antibacterial activity in agar diffusion and micro-dilution assays (in words) [3]: neither TM-025 nor TM-026 showed any significant activity | pIC50 [3]: < 3.00 | pIC50 [4]: ~5.89

CC(=O)c1cccc(N[C@H]2[C@H](N)[C@](C)(NC(=O)N(C)C)[C@@](C)(O)[C@@]2(O)COC(=O)c2c(C)cccc2O)c1 [TM-026, 7-demethyl-7-deoxypactamycin]
pIC50 ([1]; P. falciparum Dd2, 72 hours): ~7.59 | IC90 ([1]; P. falciparum Dd2, 72 hours): ~0.077 µM | pIC50 [1, 11]: 7.52 to 7.60 | IC90 [1, 11]: 0.062 to 0.077 µM | pIC50 ([2]; P. falciparum D6, 72 hours): ~7.52 | IC90 ([2]; P. falciparum D6, 72 hours): ~0.063 µM | pIC50 [2, 12]: 7.52 to 7.60 | IC90 [2, 12]: 0.062 to 0.077 µM | antibacterial activity in agar diffusion and micro-dilution assays (in words) [3]: neither TM-025 nor TM-026 showed any significant activity | pIC50 [3]: < 3.00 | pIC50 [4]: ~5.52

C[C@@H]1CC[C@H]2[C@@H](C)C(=O)O[C@@H]3O[C@@]4(C)CC[C@@H]1[C@]32OO4 [artemisinin, reference compound]
pEC50 ([1]; Plasmodium falciparum, Example 2, FIG. 14, multi-drug resistant Dd2, read-out: EC50 against the Dd2 strain): 8.15

CCN(CC)CCCC(C)Nc1ccnc2cc(Cl)ccc12 (stereo not shown) [chloroquine, reference compound]
pEC50 ([2]; Plasmodium falciparum, D6, read-out: EC50 against the D6 strain): 8.00

CC(=O)c1cccc(N[C@H]2[C@H](N)[C@]3(NC(=O)O[C@H]3C)[C@@](C)(O)[C@@]2(O)CO)c1 [de-6MSA-pactamycate]
antibacterial activity, growth of E. coli [5]: no antibacterial activity | antibacterial activity, growth of Mycobacterium smegmatis [6]: no antibacterial activity | antibacterial activity, growth of Staphylococcus aureus [7]: no antibacterial activity | antibacterial activity, growth of Pseudomonas aeruginosa [8]: no antibacterial activity

CC(=O)c1cccc(N[C@H]2[C@H](N)[C@]3(NC(=O)O[C@H]3C)[C@@](C)(O)[C@@]2(O)COC(=O)c2c(C)cccc2O)c1 [pactamycate, reference compound]
cytotoxicity profile (MTT-based assay) [9]: reduced cytotoxicity profile | pIC50 [1, 13]: ~6.52 | IC90 [1, 13]: ~0.8 µM | pIC50 [2, 14]: ~6.52 | IC90 [2, 14]: ~0.8 µM | antibacterial activity, growth of E. coli [5]: no antibacterial activity | antibacterial activity, growth of Mycobacterium smegmatis [6]: no antibacterial activity | antibacterial activity, growth of Staphylococcus aureus [7]: no antibacterial activity | antibacterial activity, growth of Pseudomonas aeruginosa [8]: no antibacterial activity | cytotoxicity profile (SRB-based assay) [10]: reduced cytotoxicity profile
